Measurements published in patent US20150094474A1, “AGRICULTURAL CHEMICALS” (Redx Pharma Ltd., priority 2012, published 2015).

How the values were obtained:
Assay type in all cases: in vivo
Conditions in all cases: 20% concentration
[1] = test system: black ants, Lasius niger; assay: Insect repellent bioassay, black ants (treated tile arena)
Description: (§1) A laboratory bioassay was conducted to screen 5 compounds (Icaridin (38); and 4 icaridin analogues: 39, 40a, 42a and 41) for repellent activity against houseflies, Musca domestica, black ants, Lasius niger, German cockroaches, Blattella germanica, and bedbugs, Cimex lectularius. Compounds were diluted in a mixture of ethanol and water and assessed at a 20% concentration. A mixture of ethanol/water only negative control was also included for comparative purposes. These were applied onto an aluminium foil tile, which was placed into one half of an arena. The other half of the arena contained an untreated aluminium foil tile. The number of insects present in the treated and untreated area was assessed every 5 minutes for a total of 20 minutes.
Black ants, Lasius niger, were field collected from the Cardiff area. Mixed age worker ants were used in the experiments.
(§2) Temperature was maintained between 24.2 and 24.6° C. and relative humidity ranged between 27.5% and 43.5%, throughout the experimental period.
(§3) The tested compounds were diluted in ethanol and water to a concentration of 20% (w/w: compound 20%, ethanol 40%, water 40%). The concentrates were prepared at room temperature and stirred for approximately 15 minutes using a vortex mixer. A negative control (mixture of ethanol:water 50:50) was also included in the testing for comparative purposes. Treatments were applied directly on to a non porous surface (aluminium foil), using a Gilson pipette at a rate of 0.225 ml per 225 cm^2 surface tile. A small piece of acetate was used to evenly spread the treatments across the entire surface of the tile.
(§4) For the testing against ants, cockroaches and bedbugs: A clear plastic container was used measuring approximately 34 cm long×21 cm wide×20 cm high. This was divided into two halves. The treated aluminium foil was placed in one half and the other half contained untreated foil. Food (sugar cube for black ants and bran pellet for cockroaches) and water (damp cotton wool) were placed in each half where appropriate. Twenty ants/cockroaches and ten bedbugs were placed in the centre of the arena. The number of insects in each half was assessed at 5 minute intervals for a total of 20 minutes.
(§5) Three to six replicates were performed for each treatment, for each species.

[2] = test system: houseflies, Musca domestica; assay: Insect repellent bioassay, houseflies (treated tile arena)
Description: as §1
(§6) Houseflies, Musca domestica, and German cockroaches, Blattella germanica, were obtained from a laboratory culture maintained at i2LResearch. Mixed sex and age adult insects (flies were aged 3-6 days old) were used in the experiments.
as §2, §3
For the testing against houseflies: A clear plastic container was used measuring approximately 34 cm long×21 cm wide×20 cm high, with a piece of netting and lid on top. This was divided into two halves using an additional tile with a small slit measuring approximately 2.5 cm×5 cm cut at a height of […] from the base, so that the insects could freely travel between halves. A treated and untreated tile was placed either side of the dividing panel. Twenty flies were placed in the half with the treated surface. Sugar and water was placed in both halves. The number of insects crossing from the treated area into the untreated area was assessed at 5 minute intervals for a total of 20 minutes.
as §5

[3] = test system: German cockroaches, Blattella germanica; assay: Insect repellent bioassay, German cockroaches (treated tile arena)
Description: as §1, §6, §2, §3, §4, §5

[4] = test system: bedbugs, Cimex lectularius; assay: Insect repellent bioassay, bedbugs (treated tile arena)
Description: as §1
Bedbugs, Cimex lectularius, were obtained from a laboratory culture maintained at CimexStore (Chepstow, UK). Mixed age and sex adult bedbugs were used in the experiments (see deviation below).
as §2, §3, §4, §5

| Compound | insects on the treated tile ([1]; TIME 5 mins) | insects on the treated tile ([1]; TIME 10 mins) | insects on the treated tile ([1]; TIME 15 mins) | insects on the treated tile ([1]; TIME 20 mins) | insects moving towards the treated tile ([2]; TIME 5 mins) | insects moving towards the treated tile ([2]; TIME 10 mins) | insects moving towards the treated tile ([2]; TIME 15 mins) | insects moving towards the treated tile ([2]; TIME 20 mins) | insects on the treated tile ([3]; TIME 5 mins) | insects on the treated tile ([3]; TIME 10 mins) | insects on the treated tile ([3]; TIME 15 mins) | insects on the treated tile ([3]; TIME 20 mins) | insects on the treated tile ([4]; TIME 10 mins) | insects on the treated tile ([4]; TIME 5 mins) | insects on the treated tile ([4]; TIME 15 mins) | insects on the treated tile ([4]; TIME 20 mins) |
| --- | --- | --- | --- | --- | --- | --- | --- | --- | --- | --- | --- | --- | --- | --- | --- | --- |
| CCC(C)OC(=O)N1CCCCC1C/C=N/O (stereo not shown) [Compound 40a] | C (greater than 25% were on the treated tile) | C (greater than 25% were on the treated tile) | C (greater than 25% were on the treated tile) | C (greater than 25% were on the treated tile) | B (between 11% and 25% were on the treated tile) | B (between 11% and 25% were on the treated tile) | B (between 11% and 25% were on the treated tile) | B (between 11% and 25% were on the treated tile) | C (greater than 25% were on the treated tile) | B (between 11% and 25% were on the treated tile) | B (between 11% and 25% were on the treated tile) | B (between 11% and 25% were on the treated tile) | A (10% or less of the insects were on the treated tile) |  |  |  |
| CCC(C)OC(=O)N1CCCCC1CC(=O)O (stereo not shown) [Compound 41, 2-(1-sec-Butoxycarbonyl-2-piperidyl)acetic acid] | C (greater than 25% were on the treated tile) | C (greater than 25% were on the treated tile) | C (greater than 25% were on the treated tile) | C (greater than 25% were on the treated tile) | A (10% or less of the insects were on the treated tile) | A (10% or less of the insects were on the treated tile) | B (between 11% and 25% were on the treated tile) | B (between 11% and 25% were on the treated tile) | B (between 11% and 25% were on the treated tile) | B (between 11% and 25% were on the treated tile) | B (between 11% and 25% were on the treated tile) | B (between 11% and 25% were on the treated tile) | B (between 11% and 25% were on the treated tile) | A (10% or less of the insects were on the treated tile) | B (between 11% and 25% were on the treated tile) | B (between 11% and 25% were on the treated tile) |
| CCC(C)OC(=O)N1CCCCC1CC(=O)OC (stereo not shown) [Compound 42a, sec-Butyl 2-(2-methoxy-2-oxo-ethyl)piperidine-1-carboxylate] | B (between 11% and 25% were on the treated tile) | B (between 11% and 25% were on the treated tile) | B (between 11% and 25% were on the treated tile) | A (10% or less of the insects were on the treated tile) | A (10% or less of the insects were on the treated tile) | A (10% or less of the insects were on the treated tile) | B (between 11% and 25% were on the treated tile) | B (between 11% and 25% were on the treated tile) | B (between 11% and 25% were on the treated tile) | B (between 11% and 25% were on the treated tile) | B (between 11% and 25% were on the treated tile) | B (between 11% and 25% were on the treated tile) | A (10% or less of the insects were on the treated tile) | A (10% or less of the insects were on the treated tile) | A (10% or less of the insects were on the treated tile) | A (10% or less of the insects were on the treated tile) |
| CCC(C)OC(=O)N1CCCCC1CCO (stereo not shown) [Icaridin (38), Icaridin, reference compound] | B (between 11% and 25% were on the treated tile) | B (between 11% and 25% were on the treated tile) | B (between 11% and 25% were on the treated tile) | A (10% or less of the insects were on the treated tile) | B (between 11% and 25% were on the treated tile) | C (greater than 25% were on the treated tile) | C (greater than 25% were on the treated tile) | C (greater than 25% were on the treated tile) | B (between 11% and 25% were on the treated tile) | B (between 11% and 25% were on the treated tile) | A (10% or less of the insects were on the treated tile) | A (10% or less of the insects were on the treated tile) | A (10% or less of the insects were on the treated tile) | A (10% or less of the insects were on the treated tile) | A (10% or less of the insects were on the treated tile) | A (10% or less of the insects were on the treated tile) |
